Series [1] concerns normal lung fibroblasts (MRC-5). The series can be described thus: Antiproliferative assay (MTT reduction), MRC-5. It counts as cell-based, human. To be noted: Homo sapiens, MRC5, 72 h; MRC-5 normal lung fibroblasts, 3 days treatment, MTT; read-out: IC50 ± SD, MRC-5. On the procedure: (§1) All human cell lines used in this work were purchased from the American Type Culture Collection (ATCC, Manasas, VA, USA). […] Promyelocytic leukemia HL-60 cells (CCL-240) were grown in suspension in RPM1 medium containing 1 mM sodium pyruvate and 2.0 g/L sodium bicarbonate. All media were supplemented with 10% heat-inactivated FBS, 100 IU/mL penicillin and 100 µg/mL streptomycin. […] For the antiproliferative assay, adherent cells were plated at a density of 5 × 10^4 cells/mL and HL-60 cells at 30 × 10^4 cells/mL. Cells were seeded in 96-well plates (100 µL/well). One day after seeding, cells were treated with medium containing the compounds at concentrations ranging from 0 up to 100 µM during 3 days. The compounds were dissolved in DMSO (1% final concentration) and complete medium. Untreated cells (medium containing 1% DMSO) were used as 100% viability controls. […] Each concentration was tested in sextuplicate and experiments were repeated 2 times. Cell viability was determined by means of the MTT reduction assay at the end of the incubation with the products.
Background: Formazan colour is commonly taken as a measure of viable cells.

Series [2] deals with gastric epithelial adenocarcinoma (AGS) cells. Description: Antiproliferative assay (MTT reduction), AGS. It counts as cell-based. To be noted: Homo sapiens, 72 h, 3 days treatment, read-out: IC50 ± SD, AGS. As for the experimental part:
(§2) All human cell lines used in this work were purchased from the American Type Culture Collection (ATCC, Manasas, VA, USA). Normal lung MRC-5 fibroblasts (CCL-171), SK-MES-1 lung cancer cells (HTB-58) and J82 bladder carcinoma cells (HTB-1) were grown as monolayers in minimum essential Eagle medium (MEM) with Earles’s salts, 2 mM L-glutamine and 1.5 g/L sodium bicarbonate. Gastric adenocarcinoma AGS cells (CRL-1739) were grown as monolayers in Ham F-12 medium containing 1 mM L-glutamine and 1.5 g/L sodium bicarbonate. Promyelocytic leukemia HL-60 cells (CCL-240) were grown in suspension in RPM1 medium containing 1 mM sodium pyruvate and 2.0 g/L sodium bicarbonate. All media were supplemented with 10% heat-inactivated FBS, 100 IU/mL penicillin and 100 µg/mL streptomycin. Cells were grown in a humidified incubator with 5% CO2 in air at 37 °C. For the antiproliferative assay, adherent cells were plated at a density of 5 × 10^4 cells/mL and HL-60 cells at 30 × 10^4 cells/mL. Cells were seeded in 96-well plates (100 µL/well). One day after seeding, cells were treated with medium containing the compounds at concentrations ranging from 0 up to 100 µM during 3 days. The compounds were dissolved in DMSO (1% final concentration) and complete medium. Untreated cells (medium containing 1% DMSO) were used as 100% viability controls. […] Each concentration was tested in sextuplicate and experiments were repeated 2 times. Cell viability was determined by means of the MTT reduction assay at the end of the incubation with the products. The results were transformed to percentage of controls and the IC50 values were graphically obtained from the dose-response curves.

The subject of series [3] is lung cancer (SK-MES-1) cells. Description: Antiproliferative assay (MTT reduction), SK-MES-1. The format is cell-based. Conditions: Homo sapiens, 72 h, SK-MES-1 lung cancer cells, 3 days treatment, read-out: IC50 ± SD, SK-MES-1. As for the experimental part:
as §1

Series [4] has as its system bladder carcinoma (J82) cells. Description: Antiproliferative assay (MTT reduction), J82. It counts as cell-based. Conditions: Homo sapiens, 72 h, 3 days treatment, read-out: IC50 ± SD, J82. As for the experimental part:
as §2

Series [5] has as its system promyelocytic leukemia (HL-60) cells. The series can be described thus: Antiproliferative assay (MTT reduction), HL-60. The format is cell-based. To be noted: Homo sapiens, 72 h, HL-60 promyelocytic leukemia cells, 3 days treatment, read-out: IC50 ± SD, HL-60. As for the experimental part:
as §1

In series [6] the test system is MRC-5, AGS, HL-60, SK-MES-1 and J82 cells. The series can be described thus: Antiproliferative assay (MTT reduction), all cell lines together. The format is cell-based, human. To be noted: Homo sapiens; range over MRC-5, AGS, SK-MES-1, J82 and HL-60. As for the experimental part: as §2

The values below come from article PMC6270232, “1,2,3-Triazole-Substituted Oleanolic Acid Derivatives: Synthesis and Antiproliferative Activity” (Molecules, 2013).

Structures are written as SMILES.

As for `Cc1ccc(S(=O)(=O)n2cc(CCC(=O)O[C@H]3CC[C@@]4(C)C(CC[C@]5(C)C4CC=C4[C@@H]6CC(C)(C)CC[C@]6(C(=O)O)CC[C@]45C)C3(C)C)nn2)cc1` (some centres unmarked) [Compound 11], the melting point (as a rule, the temperature, or range, at which the solid turns liquid) came to 163 °C. The half-inhibitory concentration (IC50) (in general, the midpoint of a concentration-inhibition curve) in series [1] was found to be 14.1 ± 0.8 µM. Further, in series [2], the IC50 was determined as 10.8 ± 0.6 µM. Further, in series [3], the concentration for half-maximal inhibition (IC50) was 21.4 ± 1.3 µM. Besides, in series [4], the IC50 was 47.1 ± 2.9 µM. For the same compound, the IC50 in series [5] turned out to be 15.9 ± 1.5 µM. Besides, in series [6], the IC50 lay in the range of 10.8 to 47.1 µM.
`Cc1ccc(S(=O)(=O)n2cc(CCCC(=O)O[C@H]3CC[C@@]4(C)C(CC[C@]5(C)C4CC=C4[C@@H]6CC(C)(C)CC[C@]6(C(=O)O)CC[C@]45C)C3(C)C)nn2)cc1` (some centres unmarked) [Compound 15] returned a melting point of 186 °C. Also, the IC50 in series [1] is 17.1 ± 1 µM. The IC50 in series [2] stood at 22.2 ± 1.6 µM. In series [3], the 50% inhibitory concentration (IC50) was 11.9 ± 0.6 µM. In series [4], the concentration for half-maximal inhibition (IC50) came to 14.3 ± 0.6 µM. In addition, in series [5], the concentration for half-maximal inhibition (IC50) came out at 11.5 ± 1 µM. The compound further gave an IC50 in series [6] of 11.5 to 22.2 µM.
